Assay results reported in paper PMC7217877, “N-AS-triggered SPMs are direct regulators of microglia in a model of Alzheimer’s disease” (Nature Communications, 2020).
“And” between values parts separate entries of the source, which are not always exact repeats. Identical values can stand only once.

How the values were obtained:
Format in all cases: in vivo, mouse
APP/PS1 mice [1] = assay: N-AS level in microglia and neuron isolated from treated mice (LC-MS/MS, Fig 4b); details: N-AS 30 mg kg^-1 daily s.c. 8 weeks, individual values
Experimental: Reactions were quenched by adding equal volume of cold methanol. A 100 μl aliquot of the reaction mixture was mixed with 30 μl of distilled water containing 5 ng ml^−1 of furosemide (internal standard) for 1 min and vigorously mixed with […] of ethyl acetate for 20 min. After centrifugation at 16,000×g for 10 min, the mixtures were kept for 2 h for freezing aqueous phase. The upper ethyl acetate layer was transferred to a clean tube and evaporated to dryness under a gentle stream of nitrogen. Then, the dried extract was reconstituted in 100 µl of mobile phase and 10 µl aliquot of the solution was injected into an Agilent 6470 Triple Quad LC–MS/MS system (Agilent, Wilmington, DE) coupled with an Agilent 1260 HPLC system. […] Quantification was carried out using multiple reaction monitoring (MRM) at m/z 340.3→263.3 for N-AS and m/z 328.9→284.8 for furosemide (internal standard) in negative ionization mode and collision energy of 20 eV. […]
Adult neurons and microglia were isolated from the mice brain as previously described. […] The purity of the fractionated neurons and microglia were acutely confirmed by neuronal (NeuN, mouse, 1:200, Millipore, MAB377) and microglial (Iba1, rabbit, 1:1000, Wako, 019-19941) markers and the isolated neurons and microglia were acutely analyzed for the acetylation assay and lipid mediators metabololipidomics. […]

APP/PS1 mice [2] = assay: microglial recruitment to Aβ plaques (Iba1/ThioS colocalization, Fig 5a); details: APP/PS1 + N-AS; cortex; individual values
Experimental: Thioflavin S (Sigma-Aldrich) staining was carried out according to previously described procedures. We used 6E10 (mouse, 1:100, Signet, SIG39300), anti-20G10 (mouse, 1:1000, provided by D. R. Howlett, GlaxoSmithKline, Harlow, Essex, UK) for Aβ42, anti-G30 (rabbit, 1:1000, provided by D. R. Howlett) for Aβ40, SMA (mouse, 1:400, Sigma-Aldrich, A2547), AT8 (mouse, 1:500, Thermo Fisher Scientific, MN1020), Caspase-3 (mouse, 1:200, Novus Biologicals, NB100-56708), ac-S565 (rabbit, 1:100), COX2 (mouse, 1:250, Thermo Fisher Scientific, 35-8200), Iba1 (rabbit, 1:500, Wako, 019-19941 and goat, Abcam, ab5076), NeuN (mouse, 1:500, Millipore, MAB177), GFAP (rabbit, 1:500, Dako, N1506 and chicken, 1:500, Abcam, ab4674), and Lamp1 (mouse, 1:200, Abcam, ab24170). The sections were analyzed with a laser-scanning confocal microscope (FV3000; Olympus) or with a BX51 microscope (Olympus). MetaMorph software (Molecular Devices) was used to quantification. Three-dimensional reconstruction of microglia was recorded and analyzed using IMARIS software (Bitplane)[11]. For the analysis of age-dependent microglial COX2^+ CX3CR1^+ cells in WT and APP/PS1 mice, COX2 (rabbit, 1:100, Abcam, ab15191) and CX3CR1 (mouse, 1:100, BioLegend, 149008) antibody were used and the images were acquired on Alexa 488 and APC Channel with performed using Operetta CLS and Analysis Software 4.5 (Perkin-Elmer). […]

APP/PS1 mice [3] = assay: mRNA levels of NEP, MMP9, IDE, CD36 in microglia (Supplementary Fig 5c); design: CD36 mRNA level in microglia / NEP mRNA level in microglia / MMP9 mRNA level in microglia / IDE mRNA level in microglia: scale not given here
Experimental: Transgenic mouse lines over-expressing the hAPP695swe (APP) and presenilin-1M146V (PS1) mutations were originated from GlaxoSmithKline (Harlow, UK)[32] and maintained as described previously. We purchased 5×FAD mice from Jackson Labs (Stock number. 34840-JAX). Because APP/PS1 and 5xFAD mice show sex differences in disease progression, we used only male mice. To examine possible therapeutic effect of N-AS and aspirin in APP/PS1 mice, the N-AS (30 mg kg^−1, Sigma-Aldrich, 01912) was injected daily s.c. for 8 weeks to 7-months-old APP/PS1 mice until the age of 9 months, and aspirin (2 mg kg^−1, Sigma-Aldrich, A5376)[33] was administrated orally to 7-months-old APP/PS1 mice for 8 weeks. Also, to confirm possible therapeutic efficacy of N-AS in 5×FAD, the N-AS (30 mg kg^−1, Sigma-Aldrich, 01912) was injected daily s.c. for 4 weeks to 3-months-old 5×FAD mice until the age of 4 months. Block randomization method was used to allocate the animals to experimental groups. To eliminate the bias, we were blinded in experimental progress such as data collection and data analysis. Mice were housed at temperature of 22 °C and a 12 h day/12 h night cycle with free access to tap water and food pellets. All protocols were approved by the Kyungpook National University Institutional Animal Care and Use Committee.
For total RNA extraction from the microglia derived from WT, APP/PS1, APP/PS1 mice treated with N-AS, and APP/PS1 mice treated with aspirin, the cells were isolated from the cortex of WT, APP/PS1, APP/PS1 mice treated with N-AS, or aspirin using the methods described above. Total RNA was isolated using the kit components according to the manufacturer’s instructions (RNeasy mini kit, 74134, QIAGEN). cDNA was synthesized from 5 μg of total RNA using a commercially available kit (Takara). Quantitative real-time PCR was performed using a Corbett research RG-6000 real-time PCR instrument. Primers are described in Supplementary Table 5.

[4] = APP/PS1 + N-AS, individual values, sFig 5c

## CCCCCCCCCCCCC/C=C/[C@@H](O)[C@H](CO)NC(C)=O [N-AS, N-((2S,3R,E)-1,3-Dihydroxyoctadec-4-en-2-yl)acetamide]
APP/PS1 mice [1]; Microglia of APP/PS1 mice
  N-AS quantification (Fig 4b): 8.217 and 7.5949 and 7.58 and 7.906 and 7.587 and 7.743
APP/PS1 mice [1]; Neuron of APP/PS1 mice
  N-AS quantification (Fig 4b): 2.188 and 3.557 and 2.872 (3×) and 3.215
APP/PS1 mice [2]
  Aβ containing /Iba1-positive cells per plaque: 7.5498 and 5.551 and 5.112 and 5.2638 and 4.818 and 7.514
  Aβ-positive Microglia/plaque: 27.3068 and 32.6682 and 21.5669 and 18.8144 and 22.2826 and 28.6878
APP/PS1 mice [3]; [4]
  CD36 mRNA level in microglia: 0.97 and 0.75 and 0.78 and 0.69 and 0.81 and 0.87 and 0.79 and 0.61
  IDE mRNA level in microglia: 0.68 and 0.56 and 0.55 and 0.48 and 0.82 and 0.81 and 0.71 and 0.78 and 0.77
  MMP9 mRNA level in microglia: 0.87 and 0.47 and 0.35 and 0.38 and 0.69 and 0.52 and 0.57 and 1.05 and 0.8
  NEP mRNA level in microglia: 0.96 and 0.5 and 0.52 and 0.57 and 0.56 and 0.59 and 0.64 and 0.85 and 0.88
APP/PS1 mice [3]; APP/PS1 treated with N-AS
  CD36 expression: enhanced
APP/PS1 mice [3]; WT, APP/PS1 vehicle, APP/PS1 N-AS
  expression of Aβ degrading enzymes (NEP, MMP9, IDE): remained unchanged between the groups
